# From patent US20060014709A1, “Drug or cosmetic” (priority 2002, published 2006)
# Values joined by “and” are separate entries in the source; they are usually repeats but may differ in a detail not shown here. Equal values may be shown once. “Also recorded” adds a separate entry of the source. Marks after values point to notes of the source that are not given here.
# What was measured:
# Type in all cases: in vivo
# [1] = system: male SDT rats (spontaneously type II diabetes model), complete skin-excised wounds; assay: Complete skin-excised model, wound healing; conditions: SDT rat, 10 mg/kg subcutaneously every day
# Source text: Using male SDT rats of 28-30 weeks age, which were a spontaneously type II diabetes model, promoting effect on repair and regeneration in wound healing after complete skin excision were examined according to a partially modified method of Breitbout AS et al. (Ann Plast Surg 1999, 43: 632). That is, an animal was shaved at its back under anesthesia with ether, and skin in 2×2 cm size was excised together with panniculus carnosus in same size to make two complete skin-excised wounds per animal.
# Healings of the wounds were observed on the 1st day, 4th day, 7th day, 12h day, 15th day, 21st day and 28th day from the operation. An area of the wounds was obtained as the product of the average vertical length and the average horizontal length which were measured along with a direction of the longest part in the wound.
# A test compound was dissolved in sterile physiological saline together with gum arabic. Concentrations of the test compound and gum arabic were adjusted to 30 mg/mL and 5% respectively. The preparation was subcutaneously injected at the dose of 10 mg/kg every day. The administration was started on 6 days before the operation and continued to 28 days after the operation.
# [2] = system: male SD rats, obstruction-released kidney (glomerular lesions and tubulointerstitial lesions); assay: Obstruction release model after complete obstruction of unilateral ureter for 14 days (Example 2-1); parameters: key to Tubulointerstitial lesions: level of lesions (quality): summed lesion score: + = 1, ++ = 2, +++ = 3 points; conditions: rat
# Source text: (§1) That is, the rat was laparotomized under anesthesia with ether and left ureter was ligated with 7-0 Nylon at the height of the margin of lower pole of kidney to close the abdomen. On the 14th day after obstruction, the obstruction was released and urinary passage was reconstructed using a cuff. Thus, after 14 days, the part of ligated obstructed ureter was resected, a polyethylene tube of 25 gages (manufactured by Nippon Sherwood) was used as a cuff and inserted into and retained at the lumen from the cut end of the lower normal ureter, then the cuff was also retained in the expanded upper ureter and each of them was ligated and fixed by 7-0 Nylon to reconstruct the urinary passage. At the same time, the right kidney at the opposite side was excised. After the release of the obstruction, body weight was measured, blood was drawn on the 2nd day, 5th day and 7th day from the release to measure serum creatinine, then the rat was killed under anesthesia and the left obstruction-released kidney was excised.
# With regard to the excised kidney, there were carried out measurements of weight of the kidney, creatinine concentration mg/dl in plasma as an indicator of kidney function and pathological test for the kidney, and also leukocyte cells which infiltrate the obstruction-released kidney were immunopathologically studied with cell surface markers for ED1 macrophages, CD11b (ED8) positive macrophages and CD5 positive lymphocytes. A number of positive cells was expressed as a number of cells per glomerulus from measured numbers of positive cells in five glomeruli, and for a number in tubulointerstitial tissue, it was expressed by the total number of cells existing in five fields of 200×magnification. For macrophages, a number of CD11b positive cells existing in glomerulus was considered as a number of CD11b^+CD2^+ macrophages and a case of existing not less than one positive cell per glomerulus was considered as positive (+). In the tubulointerstitial tissue, a number of […] 60 CD11b positive cells was considered as positive (+), or a case of CD11b^−CD2^+ macrophages dominantly increasing. Scoring of evaluation of tubulointerstitial lesions was as follows: + gets 1-point as a light lesion; ++ gets 2-point as a moderate lesion; and +++ gets3-point as a severe lesion. For glomerular lesions, when a proportion of lesioned glomeruli was decreased to not more than 40%, and for tubulointerstitial lesions, when a score of the lesions was not more than 4, it was considered as improved.
# For glomerular lesions, by counting glomeruli causing thickening of Bowman's capsule wall and glomerular hyalinosis, a proportion of glomeruli having lesions was calculated. For tubulointerstitial lesions, by qualifying hyperplasia of tubular basement membrane and interstitial fibrosis, levels of the lesions were represented.
# (§2) An in vivo biological test was carried out for the γ-lactone derivative according to the present invention using this model. Bulk powder of a test compound was dissolved in sterile physiological saline together with gum arabic, and concentrations of the test compound and gum arabic were adjusted to 30 mg/mL and 5% respectively. The preparation was administered orally or subcutaneously injected at the dose of 30 mg/kg or 3 mg/kg every day. The administration was conducted for the total 21 days of the obstructed period for 14 days and after release of the obstruction for 7 days.
# For test groups, a group administered single compound group, a group administered both compound group and a control group administered solution of gum arabic were set up and compared for renal functions and morphological evaluations, as well as numbers of ED1, CD5, CD11b positive cells by means of immunopathology.
# [3] = system: male SD rats, obstruction-released kidney (glomerular lesions and tubulointerstitial lesions); assay: Obstruction release model after complete obstruction of unilateral ureter for 14 days (Example 2-2); parameters: key to Tubulointerstitial lesions: level of lesions: summed lesion score; + = 1, ++ = 2, +++ = 3; ≤6.5 improved; conditions: rat, 30 mg/kg subcutaneously
# Source text: as §1, §2
# For cell surface markers of leukocyte cells which infiltrate the obstruction-released kidney, ED1, CD11b (ED8), CD5 and CD2 were used. […] For CD5^+, a number of not less than 20 per glomerulus was considered as positive. For glomerular lesions, which was characterized by Bowman's capsule wall, glomerular hyalinosis, dilation of urinary space pole and hypertrophy of parietal cells, 50 glomeruli were evaluated to obtain a proportion of pathologic glomeruli. For tubulointerstitial lesions, levels of the lesions were represented by qualifying hyperplasia of tubular basement membrane, tubular enlargement and atrophy and interstitial fibrosis. Scoring was as follows: + gets 1-point as a light lesion; ++ gets 2-point as a moderate lesion; and +++ gets 3-point as a severe lesion. Levels of cell infiltration were evaluated qualitatively according to the above three-point scale. For glomerular lesions, when a proportion of lesioned glomeruli was decreased to not more than 20%, and for tubulointerstitial lesions, when a score of the lesions was not more than 6.5, it was considered as improved.
# Numbers of cells positive for CD11b (ED8), CD2 and CD5 were compared by means of immunopathology, and CD11b^+CD2^+ macrophages were considered as regeneration-promoting macrophages in glomeruli and CD11b^−CD2^+CD5+ macrophages were considered as regeneration-promoting macrophages to tubulointerstitial lesions, and herewith, it was estimated whether each cell group is quantitatively dominant or not.
# [4] = 30 mg/kg subcutaneously every day for 21 days, one value per animal, 30 mg/kg
smiles,measurement,setting,value
"C[C@@H](OC(=O)[C@@]1(Oc2ccc(F)cc2)CCC(=O)O1)c1ccc2ccccc2c1 [compound (II-1), (R)-1-naphthalen-2-ylethyl (R)-2-(4-fluorophenoxy)-5-oxotetrahydrofuran-2-carboxylate]",Excised wound area (cm^2),[1]; 1st day after complete skin excision,3.33 cm^2
same,Excised wound area (cm^2),[1]; 4th day after complete skin excision,2.31 cm^2
same,Excised wound area (cm^2),[1]; 7th day after complete skin excision,1.62 cm^2
same,Excised wound area (cm^2),[1]; 12th day after complete skin excision,0.52** cm^2
same,Excised wound area (cm^2),[1]; 15th day after complete skin excision,0.55 cm^2
same,Excised wound area (cm^2),[1]; 21st day after complete skin excision,0.44 cm^2
same,Crust formation/number of wound,[1]; 21st day after the operation,0/8
same,crust formation on the surface of repaired wounds (in words),[1]; 28th day,no crust formation occurred
same,Excised wound area (cm^2),[1]; 28th day after complete skin excision,0.29 cm^2
same,Crust formation/number of wound,[1]; 28th day after the operation,1/8
same,promoting effect on wound healing (in words),"[1]; versus the control group, 10 mg/kg",significant promoting effect on wound healing at 12th day after the operation; also recorded: promoting effect on healing of epidermis
same,cases with increased regeneration-promoting CD11b^+CD2^+ macrophages to glomerular lesions,[2]; 30 mg/kg subcutaneously,all five cases
same,cases with increased regeneration-promoting CD11b^−CD2^+ macrophages to tubulointerstitial lesions,[2]; 30 mg/kg subcutaneously,four of five cases
same,pathological improvement of glomerular lesions (cases),[2]; 30 mg/kg subcutaneously,four of five cases
same,pathological improvement of tubulointerstitial lesions (cases),[2]; 30 mg/kg subcutaneously,no tubulointerstitial lesion was improved
same,"Regeneration CD11b^+CD2^+ macrophages to glomerular lesions, Determination: increase = +","[2]; 30 mg/kg subcutaneously every day for 21 days, one value per animal",+ (a case of existing not less than one positive cell per glomerulus was considered as positive (+))
same,Coincidence of two regeneration macrophages being positive,[2]; [4],Coincident; also recorded: Not coincident
same,Glomerular lesions: proportion of lesioned glomeruli (%),[2]; [4],10% and 14% and 22% and 57% and 23%
same,Number of regeneration CD11b^+CD2^+ macrophages to glomerular lesions: number of positive cells per glomerulus,[2]; [4],1.2 cells per glomerulus and 1.7 cells per glomerulus and 1.1 cells per glomerulus and 2.8 cells per glomerulus and 2.0 cells per glomerulus
same,Number of regeneration CD11b^−CD2^+ macrophages to tubulointerstitial lesions: number of positive cells (CD11b) in five fields of 200× magnification,[2]; [4],39 cells in five fields of 200× m and 49 cells in five fields of 200× m and 15 cells in five fields of 200× m and 65 cells in five fields of 200× m and 26 cells in five fields of 200× m
same,"Regeneration CD11b^−CD2^+ macrophages to tubulointerstitial lesions, Determination: increase +",[2]; [4],+ (a number of not more than 60 CD11b positive cells was considered as positive (+))
same,Serum creatinine,[2]; [4],2.6 mg/dl and 1.7 mg/dl (2×) and 2.0 mg/dl and 1.8 mg/dl
same,Tubulointerstitial lesions: level of lesions (quality),[2]; [4],7.5 and 9.0 (2×) and 8.0 and 6.5
same,cases in which regeneration-promoting CD11b^+CD2^+ macrophages were predominant in glomeruli,[3],all five cases
same,cases in which regeneration-promoting CD11b^−CD2^+CD5+ macrophages were predominant in tubulointerstitial lesions,[3],negative in tubulointerstitial lesions in all cases
same,pathological improvement of glomerular lesions (cases),[3],only one case
same,pathological improvement of tubulointerstitial lesions (cases),[3],all five cases
same,"Regeneration macrophages to glomerular lesions, Determination Increase +",[3]; one value per animal,+ (a case of existing not less than one positive cell per glomerulus was considered as positive (+))
same,Degree of cell infiltration,"[3]; one value per animal, 30 mg/kg",+++
same,Number of regeneration CD11b^+CD2^+ macrophages to glomerular lesions: number of positive cells per glomerulus CD11b^+CD2^+,"[3]; one value per animal, 30 mg/kg",1.2 cells per glomerulus and 1.7 cells per glomerulus and 1.1 cells per glomerulus and 2.8 cells per glomerulus and 2.0 cells per glomerulus
same,"Number of regeneration CD11b^−CD2^+CD5^+ macrophages to tubulointerstitial lesions: number of positive cells in five fields of 200× magnification, CD5^+","[3]; one value per animal, 30 mg/kg",6 cells in five fields of 200× m and 9 cells in five fields of 200× m and 3 cells in five fields of 200× m (2×) and 4 cells in five fields of 200× m
same,"Number of regeneration CD11b^−CD2^+CD5^+ macrophages to tubulointerstitial lesions: number of positive cells in five fields of 200× magnification, CD11b^+","[3]; one value per animal, 30 mg/kg",39 cells in five fields of 200× m and 49 cells in five fields of 200× m and 15 cells in five fields of 200× m and 65 cells in five fields of 200× m and 26 cells in five fields of 200× m
same,Serum creatinine,"[3]; one value per animal, 30 mg/kg",2.6 mg/dl and 1.7 mg/dl (2×) and 2.0 mg/dl and 1.8 mg/dl
same,Tubulointerstitial lesions: level of lesions,"[3]; one value per animal, 30 mg/kg",8.0 (4×) and 6.0
same,Glomerular lesions: proportion of lesioned glomeruli (%),"[3]; one value per animal, 50 glomeruli evaluated, 30 mg/kg",16% (2×) and 12% (2×) and 8%
